Here are results for 26 molecules from patent US8697739B2, “Bicyclic acetyl-CoA carboxylase inhibitors and uses thereof” (Novartis AG, priority 2010, dated 2014).

The term IC50 denotes the point on the concentration scale where inhibition reaches its midpoint.

SMILES strings stand for the structures.

T1 sequence (O00763 144-2458): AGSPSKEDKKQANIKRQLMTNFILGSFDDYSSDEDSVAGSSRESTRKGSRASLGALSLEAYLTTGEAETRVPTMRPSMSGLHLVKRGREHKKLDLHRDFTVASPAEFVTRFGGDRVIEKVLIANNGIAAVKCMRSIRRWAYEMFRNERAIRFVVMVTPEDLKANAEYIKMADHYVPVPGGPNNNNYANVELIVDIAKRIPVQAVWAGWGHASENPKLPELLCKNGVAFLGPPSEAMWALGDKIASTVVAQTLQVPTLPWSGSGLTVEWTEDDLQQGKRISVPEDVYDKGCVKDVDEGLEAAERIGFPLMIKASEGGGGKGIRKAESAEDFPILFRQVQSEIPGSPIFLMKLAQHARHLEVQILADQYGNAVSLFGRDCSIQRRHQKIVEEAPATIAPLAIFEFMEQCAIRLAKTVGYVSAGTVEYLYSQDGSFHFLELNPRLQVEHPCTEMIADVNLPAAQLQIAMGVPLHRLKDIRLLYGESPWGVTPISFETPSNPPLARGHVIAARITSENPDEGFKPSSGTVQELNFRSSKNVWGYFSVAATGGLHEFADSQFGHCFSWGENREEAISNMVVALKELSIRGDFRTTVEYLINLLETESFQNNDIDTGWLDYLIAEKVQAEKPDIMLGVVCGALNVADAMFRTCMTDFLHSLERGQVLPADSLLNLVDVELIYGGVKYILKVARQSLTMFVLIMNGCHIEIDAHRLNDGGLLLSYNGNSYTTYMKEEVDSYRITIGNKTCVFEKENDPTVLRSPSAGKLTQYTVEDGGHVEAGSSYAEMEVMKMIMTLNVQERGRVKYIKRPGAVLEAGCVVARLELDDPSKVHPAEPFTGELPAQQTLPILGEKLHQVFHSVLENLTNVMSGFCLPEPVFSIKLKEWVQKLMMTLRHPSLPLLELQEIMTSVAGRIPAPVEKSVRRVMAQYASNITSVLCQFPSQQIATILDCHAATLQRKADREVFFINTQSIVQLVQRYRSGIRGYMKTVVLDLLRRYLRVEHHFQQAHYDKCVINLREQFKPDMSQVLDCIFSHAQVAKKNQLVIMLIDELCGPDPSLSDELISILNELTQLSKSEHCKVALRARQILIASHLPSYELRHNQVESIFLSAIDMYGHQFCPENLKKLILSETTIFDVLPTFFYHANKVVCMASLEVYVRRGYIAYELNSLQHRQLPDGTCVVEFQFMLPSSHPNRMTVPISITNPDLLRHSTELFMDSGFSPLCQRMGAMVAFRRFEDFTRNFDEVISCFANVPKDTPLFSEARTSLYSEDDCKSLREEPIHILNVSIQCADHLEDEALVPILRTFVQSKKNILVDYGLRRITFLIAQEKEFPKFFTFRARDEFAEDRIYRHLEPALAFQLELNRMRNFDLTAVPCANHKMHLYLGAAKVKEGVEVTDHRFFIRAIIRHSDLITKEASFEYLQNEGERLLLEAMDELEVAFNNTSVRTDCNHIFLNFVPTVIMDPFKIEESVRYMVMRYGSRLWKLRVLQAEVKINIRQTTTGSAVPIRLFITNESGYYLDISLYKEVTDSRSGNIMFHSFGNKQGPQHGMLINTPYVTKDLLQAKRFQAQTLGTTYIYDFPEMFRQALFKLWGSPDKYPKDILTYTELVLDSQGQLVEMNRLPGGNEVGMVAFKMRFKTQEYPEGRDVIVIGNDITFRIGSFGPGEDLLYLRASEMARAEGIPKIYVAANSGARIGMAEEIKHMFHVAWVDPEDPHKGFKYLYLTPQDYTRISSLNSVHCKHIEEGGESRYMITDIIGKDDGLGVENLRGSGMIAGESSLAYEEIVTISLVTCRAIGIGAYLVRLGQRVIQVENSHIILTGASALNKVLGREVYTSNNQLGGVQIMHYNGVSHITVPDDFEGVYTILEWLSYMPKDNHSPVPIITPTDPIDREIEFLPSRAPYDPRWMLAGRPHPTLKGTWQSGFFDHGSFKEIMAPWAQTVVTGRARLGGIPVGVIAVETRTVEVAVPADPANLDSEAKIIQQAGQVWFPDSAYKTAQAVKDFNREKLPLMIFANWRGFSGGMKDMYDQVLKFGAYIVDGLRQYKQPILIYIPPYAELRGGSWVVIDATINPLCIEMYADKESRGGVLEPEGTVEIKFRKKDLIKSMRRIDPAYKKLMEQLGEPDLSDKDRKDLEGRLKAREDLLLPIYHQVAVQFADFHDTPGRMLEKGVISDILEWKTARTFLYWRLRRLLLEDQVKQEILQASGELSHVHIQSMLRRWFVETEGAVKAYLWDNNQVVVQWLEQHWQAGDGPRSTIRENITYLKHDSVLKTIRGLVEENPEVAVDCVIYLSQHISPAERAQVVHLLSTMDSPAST

The assay has as its target T1, human acetyl-CoA carboxylase 2 (ACC2) (Homo sapiens, UniProt O00763).
T1 construct: The cDNA encoding amino acids 144 to 2458 of human acetyl-CoA carboxylase 2; made in house; host or cells: Sf9 insect cells (baculovirus, pFastBac1)
Nature of the assay: Acetyl-CoA carboxylase enzyme assay (malonyl-CoA formation by LC/MS/MS). It counts as biochemical. Particulars: recombinant human ACC2 (aa 144-2458); read-out: IC50 ACC2. From the text: The cDNA encoding amino acids 144 to 2458 of human acetyl-CoA carboxylase 2 (ACC2, GenBank Accession #NM_001093) was cloned into the SalI and NotI sites of pFastBac1 (Invitrogen; Carlsbad, Calif.). The resulting plasmid was used to generate a recombinant ACC2 baculovirus that was amplified and titered according to the protocols in the Bac-to-Bac baculovirus expression system manual (Invitrogen). The titered virus was used to infect Sf9 cells grown in Ex-Cell 420 serum-free medium (JRH Biosciences; Lenexa, Kans.). At 48 hours post-infection, the cells were harvested and stored at −80° C. until purification. ACC2 was purified using ammonium sulfate precipitation and anion exchange chromatography.
The enzymatic assay was run as follows: 30 μL of reaction buffer (100 mM HEPES pH 7.5, 20 mM MgCl2, 20 mM potassium citrate, 2 mM DTT) was added to a 384-well microtiter plate followed by 2 μL of the test compound (or 100% DMSO control). ACC2 protein (10 μL of a 50 nM working solution) was added to plate, which was incubated at room temperature for 15 minutes. A 30 μL addition of substrate solution (50 μM acetyl-CoA, 120 μM ATP, 2 mM KHCO3) was used to initiate the reactions which were quenched with 6% acetic acid (40 μL). ACC catalyzed malonyl-CoA formation was detected by LC/MS/MS using a Cohesive Technologies LX Series multiplex LC/MSIMS system configured with four binary pumps (Agilent Technologies; Palo Alto, Calif.), a dual arm autosampler (Leap Technologies; Cary, N.C.), and one Quattro Micro triple quadrupole mass spectrometer (Waters, Milford, Mass.), all run by Aria Software version 1.5 (Cohesive Technologies; Franklin, Mass.). Four samples were injected (20 μL) onto four Phenosphere NEXT C18 30×2 mm 5 μm columns (Phenomenex; Torrance, Calif.), eluted by four separate pumps, running identical gradients, through a column switching manifold with the one outlet fitted to the electrospray (ESI) source. Malonyl-CoA was eluted with 5 mM ammonium acetate, pH 4.5 (Buffer A) and 100% acetonitrile (Buffer B) via a step gradient. Argon was used as the collision gas and the following species were monitored via MRM detection: malonyl-CoA (853.8>346.9), internal standard (A: [^13C3]-malonyl-CoA, 857>350). The lower limit of detection is 0.3 uM for malonyl-CoA in this assay.
For `CC(C)[C@H](N)C(=O)OCc1ccc(-c2cc3ccc(S(=O)(=O)N[C@H]4CC[C@H](C(=O)N[C@H](C)c5ccc(F)cc5)CC4)cc3[nH]2)cc1` [Example 27, (S)-4-(6-(N-((1R,4r)-4-((R)-1-(4-fluorophenyl)ethylcarbamoyl)cyclohexyl)sulfamoyl)-1H-indol-2-yl)benzyl 2-amino-3-methylbutanoate], the IC50 is below 10 nM.
For the molecule `Cc1c(C2CC2)n(C)c2cc(S(=O)(=O)N[C@H]3CC[C@H](C(=O)N4CCOC[C@@H]4C)CC3)ccc12` [Example 32, 2-cyclopropyl-1,3-dimethyl-N-((1S,4r)-4-((S)-3-methylmorpholine-4-carbonyl)cyclohexyl)-1H-indole-6-sulfonamide], the IC50 came to 245 nM.
For `C[C@@H](NC(=O)[C@H]1CC[C@H](NS(=O)(=O)c2cnc3c(c2)NCCN3)CC1)c1ccc(F)cc1` [Example 33, (1r,4R)—N—((R)-1-(4-fluorophenyl)ethyl)-4-(1,2,3,4-tetrahydropyrido[3,2-b]pyrazine-7-sulfonamido)cyclohexanecarboxamide] the value was 140 nM; for `C[C@@H](NC(=O)[C@H]1CC[C@H](NS(=O)(=O)c2cnc3c(c2)N(C)CCN3C)CC1)c1ccc(F)cc1` [Example 34, (1r,4R)-4-(1,4-dimethyl-1,2,3,4-tetrahydropyrido[3,2-b]pyrazine-7-sulfonamido)-N—((R)-1-(4-fluorophenyl)ethyl)cyclohexanecarboxamide], 138 nM; for `C[C@@H](NC(=O)[C@H]1CC[C@H](NS(=O)(=O)c2cnc3c(c2)NCCS3)CC1)c1ccc(F)cc1` [Example 35, (1r,4R)-4-(2,3-dihydro-1H-pyrido[2,3-b][1,4]thiazine-7-sulfonamido)-N—((R)-1-(4-fluorophenyl)ethyl)cyclohexanecarboxamide], 10 nM.
In the case of `CCOc1ccc2cc(S(=O)(=O)N[C@H]3CC[C@H](C(=O)N[C@H](C)c4ccc(F)cc4)CC3)ccc2n1` [Example 36, (1r,4R)-4-(2-ethoxyquinoline-6-sulfonamido)-N—((R)-1-(4-fluorophenyl)ethyl)cyclohexanecarboxamide], the IC50 worked out at 50 nM.
Turning to `CCOc1ccc2cc(S(=O)(=O)N[C@H]3CC[C@H](C(=O)N[C@@H](c4ccccc4)[C@@H](C)O)CC3)ccc2n1` [Example 37, (1r,4S)-4-(2-ethoxyquinoline-6-sulfonamido)-N-((1S,2R)-2-hydroxy-1-phenylpropyl)cyclohexanecarboxamide], the IC50 was determined as 75 nM.
For `C[C@@H](NC(=O)[C@H]1CC[C@H](NS(=O)(=O)c2ccc3nc(N4CCN(C)CC4)ccc3c2)CC1)c1ccc(F)cc1` [Example 38, (1r,4R)-N-((R)-1-(4-fluorophenyl)ethyl)-4-(2-(4-methylpiperazin-1-yl)quinoline-6-sulfonamido)cyclohexanecarboxamide] the value was 50 nM.
With `C[C@@H](NC(=O)[C@H]1CC[C@H](NS(=O)(=O)c2ccc3nc(-c4ccncc4)ccc3c2)CC1)c1ccc(F)cc1` [Example 39, (1r,4R)-N-((R)-1-(4-fluorophenyl)ethyl)-4-(2-(pyridin-4-yl)quinoline-6-sulfonamido)cyclohexanecarboxamide], the IC50 was 25 nM.
With `C[C@@H](NC(=O)[C@H]1CC[C@H](NS(=O)(=O)c2ccc3nc(C(F)(F)F)cn3c2)CC1)c1ccc(F)cc1` [Example 40, (1r,4R)-N-((R)-1-(4-fluorophenyl)ethyl)-4-(2-(trifluoromethyl)imidazo[1,2-a]pyridine-6-sulfonamido)cyclohexanecarboxamide], the IC50 stood at 34100 nM.
For `C[C@@H](NC(=O)[C@H]1CC[C@H](NC(=O)Nc2ccc3[nH]c(-c4ccccc4)nc3c2)CC1)c1ccc(F)cc1` [Example 41, (1r,4R)-N-((R)-1-(4-fluorophenyl)ethyl)-4-(3-(2-phenyl-1H-benzo[d]imidazol-5-yl)ureido)cyclohexanecarboxamide] the value was 4640 nM; for `C[C@@H](NC(=O)[C@H]1CC[C@H](NS(=O)(=O)c2ccc3nc(Cl)ccc3c2)CC1)c1ccc(F)cc1` [Example 42, (1r,4R)-4-(2-chloroquinoline-6-sulfonamido)-N-((R)-1-(4-fluorophenyl)ethyl)cyclohexanecarboxamide], 94 nM; for `O=C([C@H]1CC[C@H](NS(=O)(=O)c2cnc3ccccc3c2)CC1)N1CCCC1c1ccccc1` (some centres unmarked) [Example 43, N-((1r,4r)-4-(2-phenylpyrrolidine-1-carbonyl)cyclohexyl)quinoline-3-sulfonamide], 412 nM.
In the case of `CC(NC(=O)[C@H]1CC[C@H](NS(=O)(=O)c2cnc3ccccc3c2)CC1)c1cccc(F)c1` (some centres unmarked) [Example 44, (1r,4r)-N-(1-(3-fluorophenyl)ethyl)-4-(quinoline-3-sulfonamido)cyclohexanecarboxamide], the IC50 was 450 nM.
With `CC(NC(=O)[C@H]1CC[C@H](NS(=O)(=O)c2cnc3ccccc3c2)CC1)c1ccc(C(F)(F)F)cc1` (some centres unmarked) [Example 45, (1r,4r)-4-(quinoline-3-sulfonamido)-N-(1-(4-(trifluoromethyl)phenyl)ethyl)cyclohexanecarboxamide], the IC50 was above 35000 nM.
On to `C[C@@H](NC(=O)[C@H]1CC[C@H](NS(=O)(=O)c2cnc3ccccc3c2)CC1)c1ccccc1C(F)(F)F` [Example 46, (1r,4R)-4-(quinoline-3-sulfonamido)-N-((R)-1-(2-(trifluoromethyl)phenyl)ethyl)cyclohexanecarboxamide], for which the IC50 came to 9040 nM.
For `CN1CCN(C(=O)[C@H]2CC[C@H](NS(=O)(=O)c3cnc4ccccc4c3)CC2)C(c2ccccc2)C1` (some centres unmarked) [Example 47, N-((1r,4r)-4-(4-methyl-2-phenylpiperazine-1-carbonyl)cyclohexyl)quinoline-3-sulfonamide] the value was 4220 nM; for `O=C([C@H]1CC[C@H](NS(=O)(=O)c2cnc3ccccc3c2)CC1)N1CCCC1C(F)(F)F` (some centres unmarked) [Example 48, N-((1r,4r)-4-(2-(trifluoromethyl)pyrrolidine-1-carbonyl)cyclohexyl)quinoline-3-sulfonamide], 32800 nM; for `COc1ccc2cc(S(=O)(=O)N[C@H]3CC[C@H](C(=O)N[C@H](C)c4ccc(F)cc4)CC3)ccc2n1` [Example 49, (1r,4R)-N-((R)-1-(4-fluorophenyl)ethyl)-4-(2-methoxyquinoline-6-sulfonamido)cyclohexanecarboxamide], 43 nM.
The figure for `C[C@@H](NC(=O)[C@H]1CC[C@H](NS(=O)(=O)c2ccc3nc(OCC(F)(F)F)ccc3c2)CC1)c1ccc(F)cc1` [Example 50, (1r,4R)-N-((R)-1-(4-fluorophenyl)ethyl)-4-(2-(2,2,2-trifluoroethoxy)quinoline-6-sulfonamido)cyclohexanecarboxamide] is above 35000 nM.
On to `C[C@@H](NC(=O)[C@H]1CC[C@H](NS(=O)(=O)c2ccc3nc(OC4CCC4)ccc3c2)CC1)c1ccc(F)cc1` [Example 51, (1r,4R)-4-(2-cyclobutoxyquinoline-6-sulfonamido)-N-((R)-1-(4-fluorophenyl)ethyl)cyclohexanecarboxamide], for which the IC50 came out at 101 nM.
The figure for `C[C@@H](NC(=O)[C@H]1CC[C@H](NS(=O)(=O)c2cnc3nc(-c4ccccc4)sc3c2)CC1)c1ccc(F)cc1` [Example 52, (1r,4R)-N-((R)-1-(4-fluorophenyl)ethyl)-4-(2-phenylthiazolo[4,5-b]pyridine-6-sulfonamido)cyclohexanecarboxamide] is 435 nM; for `C[C@@H](NC(=O)[C@H]1CC[C@H](NS(=O)(=O)c2ccc3nc(N(C)C)ccc3c2)CC1)c1ccc(F)cc1` [Example 53, (1r,4R)-4-(2-(dimethylamino)quinoline-6-sulfonamido)-N-((R)-1-(4-fluorophenyl)ethyl)cyclohexanecarboxamide] it is 93 nM; for `C[C@@H](NC(=O)[C@H]1CC[C@H](NS(=O)(=O)c2ccc3nc(O)ccc3c2)CC1)c1ccc(F)cc1` [Example 54, (1r,4R)-N-((R)-1-(4-fluorophenyl)ethyl)-4-(2-hydroxyquinoline-6-sulfonamido)cyclohexanecarboxamide] it is 193 nM.
For `C[C@@H](NC(=O)[C@H]1CC[C@H](NS(=O)(=O)c2cnc3ccccc3c2)CC1)c1ccccc1` [Example 55, (1r,4R)-N-((R)-1-phenylethyl)-4-(quinoline-3-sulfonamido)cyclohexanecarboxamide] the value was 134 nM; for `CC[C@@H](NC(=O)[C@H]1CC[C@H](NS(=O)(=O)c2cnc3ccccc3c2)CC1)c1ccccc1` [Example 56, (1r,4R)-N-((R)-1-phenylpropyl)-4-(quinoline-3-sulfonamido)cyclohexanecarboxamide], 189 nM.
